# According to publication PMC10973027 (Molecular Imaging and Biology, 2023):
# Entries after “also recorded” stand apart in the source; their conditions may differ.
# Assays:
# [1] = tested on: Caco-2 cell system; design: method as in PMID 35959805; conditions: Caco-2, in vitro; cited from earlier work
# [2] = Safety and tolerability in TM0017 (TEAEs, ECG, vital signs)
# Experimental: Other safety variables recorded include changes in 12-lead electrocardiogram (ECG) assessment and changes in vital signs (heart rate, systolic blood pressure, diastolic blood pressure, respiratory rate, and body temperature). Vital signs were measured in supine position following 5 min of rest and clinically significant abnormalities (according to the investigator) were recorded as an AE. All ECG recordings were performed following 5 min of rest in the supine position, in triplicate, with ≥ 1 min between each recording. If any clinically significant abnormalities occurred, an ECG data specialist was to review the recordings.
# [3] = design: method as in PMID 35959805; conditions: cited from earlier work
# [4] = tested on: ASYN pathology; conditions: mouse model of PD, once-daily over 3 months; cited from earlier work
# [5] = Plasma pharmacokinetics after single oral dose in TM0017; format: in vivo; conditions: male, human, TM0017, single oral 360 mg
# [6] = Plasma free fraction; format: in vitro ADME; conditions: human plasma
# [7] = Phase 1 PET-CT brain biodistribution study TM0017 (VT, K1, k2); format: in vivo, human
# Experimental: A sample size of 2–10 participants was considered sufficient to meet the objectives, whilst limiting radiation exposure.
# The preparation of radiopharmaceuticals and execution of PET-CT scans was performed by radiochemists, physicians, and technologists of Invicro (London, UK). Following local anesthesia, a catheter was inserted into the radial artery by an experienced physician; two venous catheters were also inserted. […] Upon administration, dynamic scanning started immediately and continued for 90 min.
# Arterial input function data were acquired and processed for all PET scans.
# Anatomical regions of interest (ROI) were defined via nonlinear deformation of a template MR image and associated neuroanatomical atlas, to match individual participants’ MR images. These ROI included, but were not limited to: parietal lobe, occipital lobe, frontal lobe, temporal lobe, striatum, cerebellum, thalamus, and the brain stem. Participants’ PET images were registered to their MR images, enabling the individualized ROI to be applied to the dynamic emission data to generate regional time activity curves (TACs). For additional information on the generation of regional TACs, see the electronic supplement.
# Phase 1 PET Study in Healthy Male Participants (TM0017)
# The TAC and total plasma data were fitted to a single compartment model to determine the influx and efflux constants K1 and k2. Because the plasma free fraction estimate is imprecise, we elected to fit the model using the total (free and bound) arterial concentration input function. The parameters of this model are related to the analogous parameters which would be estimated using an accurate estimate of the free arterial concentration using the equations below. We were able therefore to determine and present the K1 and estimated whole brain total distribution volume (VT), with relatively good repeatability between patients, and the equations below could also be used to relate the overall mean estimates back to the ideal total brain to free plasma minzasolmin (V’T) and unidirectional extraction Eu which can be calculated using the free fraction. The blood volume in the model was fixed at 5%. In this model, radiotracer which is free in tissue, non-specifically bound and specifically bound (i.e. to a target of interest) are lumped together in a single compartment, and so interchange between those states is assumed to be rapid.
# The arterial input function used represents the total concentration of parent radiotracer in plasma, with no correction for plasma protein binding and the fitted and observed K1 from this model is lower than the rate of uptake from the free plasma concentration (K’1):
# To calculate the Eu from the observed K1 from the model we then need to combine […]
# The partition coefficient between total brain and total plasma concentration was determined from the fitted K1 and k2 parameters: […]
# and the ratio of total concentration in brain to free concentration in plasma ( V’T) could be […]
# Supplemental Fig. 1. Example of HPLC chromatograms (radioactive trace, top; UV trace, bottom) obtained during HPLC analysis of [11C-N-CH3]UCB2713 dose. The time delay
# [8] = TM0017, N = 4, single oral dose 360 mg
# [9] = UP0030, 90–450 mg single ascending dose
structure (smiles),measurement,setting,value
"CCCC[C@H](Cc1c[nH]c2ccccc12)NC(=O)c1cnc(N2CCN(C)CC2)s1 [minzasolmin, N-[(1R)-1-(1H-indol-3-ylmethyl)pentyl]-2-(4-methylpiperazin-1-yl)thiazole-5-carboxamide]",permeability,[1],high permeability
same,Any TEAEs,[2]; [8],3 (75) n (%)
same,Deaths,[2]; [8],0 n (%)
same,Discontinuations due to TEAEs,[2]; [8],0 n (%)
same,Drug-related TEAEs,[2]; [8],0 n (%)
same,Serious TEAEs,[2]; [8],0 n (%)
same,Severe TEAEs,[2]; [8],0 n (%)
same,TEAEs of special interest,[2]; [8],0 n (%)
same,"ECG parameters, vital signs, laboratory parameters","[2]; TM0017, healthy male participants","No clinically relevant findings in ECG parameters or vital sign measurements; also recorded: no clinically relevant findings in laboratory parameters, vital signs, or ECG recordings"
same,participants reporting TEAEs,"[2]; TM0017 overall, three out of four participants",75%
same,AUC GeoMean (time zero to infinity),[3]; [9],3225 to 17040 ng·h/mL
same,Cmax GeoMean,[3]; [9],374 to 1806 ng/mL
same,tmax Median,[3]; [9],1.5 to 2 h
same,"apparent terminal elimination half-life, GeoMean range",[3]; previous phase 1/1b studies,9.3 to 13.1 h
same,tolerability,[4],well-tolerated
same,AUC,[5]; read-out: AUC GeoMean (time zero to infinity),13200 ng·h/mL
same,Cmax,[5]; read-out: Cmax GeoMean,1580 ng/mL
same,half-life,[5]; read-out: apparent terminal elimination half-life (GeoMean) (converted),11.4 h
same,Tmax,[5]; read-out: tmax Median,2 h
same,fraction unbound,[6],~0.025
same,Kp,"[7]; male, human, brain/plasma, intravenous, steady-state, from VT, read-out: Kp (total brain to total plasma concentration, partition coefficient)",~0.5
same,maximum projected human total brain concentration,"[7]; minzasolmin 360 mg/day dose, with plasma concentrations of UP0077",up to 1273 ng/mL
